{
  "source": "paper PMC8222254",
  "about": "“Self-assembly of an anion receptor with metal-dependent kinase inhibition and potent in vitro anti-cancer properties” (Nature Communications, 2021)",
  "assay_in_all_cases": "Kinase inhibition screen, cell-free 33P ATP assay at 10 μM",
  "type_in_all_cases": "biochemical",
  "key": {"[1]": {"molecular_target": "140 purified human kinases (Homo sapiens, UniProt Q16539)", "sequence (Q16539 whole entry)": "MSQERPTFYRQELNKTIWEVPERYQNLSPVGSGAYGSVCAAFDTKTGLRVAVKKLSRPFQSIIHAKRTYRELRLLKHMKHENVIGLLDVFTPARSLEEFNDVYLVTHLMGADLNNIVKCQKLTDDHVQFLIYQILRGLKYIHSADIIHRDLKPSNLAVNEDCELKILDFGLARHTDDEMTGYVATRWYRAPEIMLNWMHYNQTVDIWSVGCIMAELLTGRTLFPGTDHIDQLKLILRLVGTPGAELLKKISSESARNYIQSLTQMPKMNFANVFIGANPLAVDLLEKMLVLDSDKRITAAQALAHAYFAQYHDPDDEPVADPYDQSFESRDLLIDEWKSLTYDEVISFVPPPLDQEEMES", "conditions": "p38a MAPK", "summary_of_the_method": "(§1)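 Radiometric ^33P ATP cell-free format with purified enzymes; both complexes run at 10 μM in duplicate, results plotted on a kinome map via HGNC symbols.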"}, "[2]": {"molecular_target": "140 purified human kinases (Homo sapiens, UniProt Q14012)", "sequence (Q14012 whole entry)": "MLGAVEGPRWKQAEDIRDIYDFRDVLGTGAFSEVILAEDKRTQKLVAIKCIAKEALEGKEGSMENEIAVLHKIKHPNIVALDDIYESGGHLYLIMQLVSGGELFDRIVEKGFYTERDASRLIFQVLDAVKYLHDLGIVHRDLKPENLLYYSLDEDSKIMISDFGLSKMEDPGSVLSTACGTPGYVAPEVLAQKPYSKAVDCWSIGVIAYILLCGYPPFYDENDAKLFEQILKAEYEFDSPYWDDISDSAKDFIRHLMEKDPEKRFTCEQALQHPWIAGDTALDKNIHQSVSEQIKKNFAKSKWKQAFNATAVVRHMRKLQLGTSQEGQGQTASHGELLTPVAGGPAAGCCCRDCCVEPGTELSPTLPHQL", "conditions": "CAMK1", "summary_of_the_method": "as §1"}, "[3]": {"molecular_target": "T1, 140 purified human kinases (Tribolium castaneum, UniProt D6WMX4)", "T1 sequence (D6WMX4 6-570)": "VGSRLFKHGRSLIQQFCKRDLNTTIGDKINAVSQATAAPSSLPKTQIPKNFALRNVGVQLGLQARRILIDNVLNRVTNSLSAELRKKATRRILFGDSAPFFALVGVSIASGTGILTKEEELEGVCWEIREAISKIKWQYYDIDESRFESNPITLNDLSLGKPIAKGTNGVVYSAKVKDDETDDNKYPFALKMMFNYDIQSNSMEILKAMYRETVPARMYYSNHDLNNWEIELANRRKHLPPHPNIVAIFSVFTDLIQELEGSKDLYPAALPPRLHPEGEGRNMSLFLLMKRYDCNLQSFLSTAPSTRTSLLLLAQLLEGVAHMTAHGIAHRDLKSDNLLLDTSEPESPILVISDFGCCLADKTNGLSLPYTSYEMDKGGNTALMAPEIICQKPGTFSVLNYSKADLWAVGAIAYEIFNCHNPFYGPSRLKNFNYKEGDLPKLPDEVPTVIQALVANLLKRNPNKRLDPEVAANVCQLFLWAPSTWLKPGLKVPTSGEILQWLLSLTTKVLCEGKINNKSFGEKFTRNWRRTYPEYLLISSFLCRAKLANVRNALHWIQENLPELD", "conditions": "PINK", "summary_of_the_method": "as §1"}, "[4]": {"molecular_target": "140 purified human kinases (Homo sapiens, UniProt P45984)", "sequence (P45984 whole entry)": "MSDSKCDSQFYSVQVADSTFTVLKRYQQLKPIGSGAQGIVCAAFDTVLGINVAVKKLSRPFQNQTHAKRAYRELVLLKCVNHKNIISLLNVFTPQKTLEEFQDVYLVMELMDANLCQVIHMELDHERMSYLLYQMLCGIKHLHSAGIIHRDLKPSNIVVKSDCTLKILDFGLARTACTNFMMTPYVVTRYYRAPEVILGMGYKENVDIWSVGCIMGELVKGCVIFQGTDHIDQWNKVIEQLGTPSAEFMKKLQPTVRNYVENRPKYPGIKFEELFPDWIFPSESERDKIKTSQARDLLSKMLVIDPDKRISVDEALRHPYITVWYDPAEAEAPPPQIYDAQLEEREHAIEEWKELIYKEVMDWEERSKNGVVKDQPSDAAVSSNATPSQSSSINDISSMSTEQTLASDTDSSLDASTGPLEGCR", "conditions": "JNK2", "summary_of_the_method": "as §1"}, "[5]": {"molecular_target": "140 purified human kinases (Homo sapiens, UniProt P27361)", "conditions": "ERK1", "summary_of_the_method": "as §1"}, "[6]": {"molecular_target": "140 purified human kinases (Homo sapiens, UniProt Q6IQ55)", "sequence (Q6IQ55 whole entry)": "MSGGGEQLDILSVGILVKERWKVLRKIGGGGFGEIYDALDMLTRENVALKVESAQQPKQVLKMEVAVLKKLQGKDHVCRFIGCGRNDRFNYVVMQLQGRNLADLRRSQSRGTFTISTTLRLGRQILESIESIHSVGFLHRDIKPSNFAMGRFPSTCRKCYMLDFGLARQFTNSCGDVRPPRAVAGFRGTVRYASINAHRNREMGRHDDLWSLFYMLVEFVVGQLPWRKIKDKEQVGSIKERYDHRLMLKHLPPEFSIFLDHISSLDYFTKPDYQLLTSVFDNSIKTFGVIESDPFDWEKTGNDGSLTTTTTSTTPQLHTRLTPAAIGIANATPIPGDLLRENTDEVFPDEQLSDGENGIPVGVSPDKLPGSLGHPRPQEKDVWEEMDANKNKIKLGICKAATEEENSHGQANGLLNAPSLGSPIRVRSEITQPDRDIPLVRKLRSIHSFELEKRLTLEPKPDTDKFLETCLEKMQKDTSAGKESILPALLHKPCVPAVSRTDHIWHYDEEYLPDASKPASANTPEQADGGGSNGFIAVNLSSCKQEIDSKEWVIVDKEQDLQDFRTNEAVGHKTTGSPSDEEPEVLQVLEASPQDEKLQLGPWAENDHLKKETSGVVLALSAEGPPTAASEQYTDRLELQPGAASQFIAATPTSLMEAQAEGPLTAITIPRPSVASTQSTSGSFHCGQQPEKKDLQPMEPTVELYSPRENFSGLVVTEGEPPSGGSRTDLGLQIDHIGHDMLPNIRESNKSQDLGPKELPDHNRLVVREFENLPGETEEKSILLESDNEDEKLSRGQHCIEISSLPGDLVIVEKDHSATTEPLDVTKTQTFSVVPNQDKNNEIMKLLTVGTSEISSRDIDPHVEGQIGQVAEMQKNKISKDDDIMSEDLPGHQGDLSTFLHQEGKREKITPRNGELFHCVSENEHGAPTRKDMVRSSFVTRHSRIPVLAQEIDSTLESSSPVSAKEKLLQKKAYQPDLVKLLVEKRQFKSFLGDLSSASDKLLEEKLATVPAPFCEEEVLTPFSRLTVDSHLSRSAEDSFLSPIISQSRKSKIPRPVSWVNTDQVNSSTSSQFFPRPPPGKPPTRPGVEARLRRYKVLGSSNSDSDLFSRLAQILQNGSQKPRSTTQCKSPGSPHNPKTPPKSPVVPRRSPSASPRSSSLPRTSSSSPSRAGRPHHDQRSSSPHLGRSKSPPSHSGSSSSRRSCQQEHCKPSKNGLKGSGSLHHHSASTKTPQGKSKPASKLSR", "conditions": "TTBK2", "summary_of_the_method": "as §1"}, "[7]": {"molecular_target": "T2, 140 purified human kinases (Homo sapiens, UniProt P53778)", "T2 sequence (P53778 1-367)": "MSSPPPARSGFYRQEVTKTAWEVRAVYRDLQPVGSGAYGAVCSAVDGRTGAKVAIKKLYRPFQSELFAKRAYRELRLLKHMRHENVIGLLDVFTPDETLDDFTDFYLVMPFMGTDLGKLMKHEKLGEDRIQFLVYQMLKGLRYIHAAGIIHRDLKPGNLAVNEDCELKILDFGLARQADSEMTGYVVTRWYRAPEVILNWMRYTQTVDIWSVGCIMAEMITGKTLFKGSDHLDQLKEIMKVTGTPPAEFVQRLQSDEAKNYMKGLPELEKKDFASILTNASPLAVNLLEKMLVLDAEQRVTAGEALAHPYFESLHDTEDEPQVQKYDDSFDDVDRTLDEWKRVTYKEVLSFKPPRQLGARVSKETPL", "conditions": "p38g MAPK", "summary_of_the_method": "as §1"}, "[8]": {"molecular_target": "140 purified human kinases (Homo sapiens, UniProt P50750)", "conditions": "CDK9-Cyclin T1", "summary_of_the_method": "as §1"}, "[9]": {"molecular_target": "140 purified human kinases (Homo sapiens, UniProt Q7KZI7)", "sequence (Q7KZI7 whole entry)": "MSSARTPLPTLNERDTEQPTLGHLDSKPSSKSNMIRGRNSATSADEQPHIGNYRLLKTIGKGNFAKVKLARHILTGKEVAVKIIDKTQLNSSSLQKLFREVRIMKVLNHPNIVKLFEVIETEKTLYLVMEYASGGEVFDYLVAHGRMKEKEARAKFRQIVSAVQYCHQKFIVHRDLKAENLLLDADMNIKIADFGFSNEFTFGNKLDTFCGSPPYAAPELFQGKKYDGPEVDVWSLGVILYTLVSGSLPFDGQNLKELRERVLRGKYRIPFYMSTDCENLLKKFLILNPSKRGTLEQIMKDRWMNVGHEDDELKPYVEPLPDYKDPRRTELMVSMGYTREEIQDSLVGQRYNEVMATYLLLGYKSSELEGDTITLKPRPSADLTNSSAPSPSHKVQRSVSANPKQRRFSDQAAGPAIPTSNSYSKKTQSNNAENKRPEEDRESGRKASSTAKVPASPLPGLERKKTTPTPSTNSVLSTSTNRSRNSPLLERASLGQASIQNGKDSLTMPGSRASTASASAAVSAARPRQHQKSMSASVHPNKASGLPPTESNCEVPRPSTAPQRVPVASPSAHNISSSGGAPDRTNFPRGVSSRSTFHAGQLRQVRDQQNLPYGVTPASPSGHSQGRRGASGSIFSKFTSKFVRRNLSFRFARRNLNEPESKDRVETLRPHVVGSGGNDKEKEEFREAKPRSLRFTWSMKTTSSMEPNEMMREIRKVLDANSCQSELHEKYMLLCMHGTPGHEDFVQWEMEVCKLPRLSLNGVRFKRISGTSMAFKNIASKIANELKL", "conditions": "MARK2", "summary_of_the_method": "as §1"}, "[10]": {"molecular_target": "140 purified human kinases (Homo sapiens, UniProt P48730)", "sequence (P48730 whole entry)": "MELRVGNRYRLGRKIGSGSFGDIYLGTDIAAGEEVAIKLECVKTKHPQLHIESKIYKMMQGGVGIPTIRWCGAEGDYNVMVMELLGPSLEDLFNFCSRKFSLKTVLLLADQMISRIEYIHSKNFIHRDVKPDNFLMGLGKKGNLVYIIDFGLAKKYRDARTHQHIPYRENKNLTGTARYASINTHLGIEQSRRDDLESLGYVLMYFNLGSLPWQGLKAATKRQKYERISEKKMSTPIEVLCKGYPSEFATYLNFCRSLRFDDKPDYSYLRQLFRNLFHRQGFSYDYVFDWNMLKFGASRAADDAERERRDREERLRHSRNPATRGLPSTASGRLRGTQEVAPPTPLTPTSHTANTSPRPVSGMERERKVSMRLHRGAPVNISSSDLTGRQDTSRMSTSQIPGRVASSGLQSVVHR", "conditions": "CK1δ", "summary_of_the_method": "as §1"}, "[11]": {"molecular_target": "140 purified human kinases (Homo sapiens, UniProt Q9P289)", "sequence (Q9P289 whole entry)": "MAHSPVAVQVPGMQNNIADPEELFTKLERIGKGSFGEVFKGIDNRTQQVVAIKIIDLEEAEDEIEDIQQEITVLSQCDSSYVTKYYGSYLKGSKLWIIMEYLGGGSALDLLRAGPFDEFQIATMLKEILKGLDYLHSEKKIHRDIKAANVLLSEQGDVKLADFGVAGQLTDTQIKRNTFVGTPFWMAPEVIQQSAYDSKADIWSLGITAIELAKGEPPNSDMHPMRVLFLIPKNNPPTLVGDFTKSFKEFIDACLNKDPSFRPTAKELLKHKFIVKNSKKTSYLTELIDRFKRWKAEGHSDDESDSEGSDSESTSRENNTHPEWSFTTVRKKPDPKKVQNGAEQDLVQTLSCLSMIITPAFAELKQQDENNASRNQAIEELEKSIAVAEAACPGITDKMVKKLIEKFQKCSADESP", "conditions": "MST4", "summary_of_the_method": "as §1"}, "[12]": {"molecular_target": "140 purified human kinases (Homo sapiens, UniProt P51617)", "sequence (P51617 whole entry)": "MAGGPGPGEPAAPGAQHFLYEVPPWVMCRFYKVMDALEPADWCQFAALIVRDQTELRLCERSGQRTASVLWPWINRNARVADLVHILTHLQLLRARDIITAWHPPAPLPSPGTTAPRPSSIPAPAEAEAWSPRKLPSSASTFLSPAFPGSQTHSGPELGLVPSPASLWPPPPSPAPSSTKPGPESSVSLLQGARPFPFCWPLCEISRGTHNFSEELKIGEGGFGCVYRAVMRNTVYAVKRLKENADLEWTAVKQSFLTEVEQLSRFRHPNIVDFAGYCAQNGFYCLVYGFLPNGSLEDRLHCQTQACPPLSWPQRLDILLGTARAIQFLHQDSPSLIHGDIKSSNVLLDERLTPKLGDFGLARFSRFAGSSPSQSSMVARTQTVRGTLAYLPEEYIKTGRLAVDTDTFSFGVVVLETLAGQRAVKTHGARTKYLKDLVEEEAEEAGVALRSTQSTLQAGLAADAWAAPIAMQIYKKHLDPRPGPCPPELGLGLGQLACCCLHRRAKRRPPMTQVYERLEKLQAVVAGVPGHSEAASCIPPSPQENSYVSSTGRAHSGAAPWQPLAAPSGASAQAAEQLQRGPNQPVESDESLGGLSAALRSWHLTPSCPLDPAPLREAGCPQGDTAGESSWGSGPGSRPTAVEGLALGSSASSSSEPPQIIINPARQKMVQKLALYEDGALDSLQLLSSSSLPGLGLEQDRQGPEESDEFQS", "conditions": "IRAK1", "summary_of_the_method": "as §1"}},
  "note": "Values joined by “and” are separate entries in the source; they are usually repeats but may differ in a detail not shown here. Identical values can stand only once.",
  "data": [
    {"smiles": "CC(=O)[O-].CC(=O)[O-].CC(=O)[O-].CC(=O)[O-].CC(=O)[O-].CC(=O)[O-].[Zn+2].[Zn+2].[Zn+2].c1ccc(-c2csc(NCCN(CCNc3nc(-c4ccccn4)cs3)CCNc3nc(-c4ccccn4)cs3)n2)nc1.c1ccc(-c2csc(NCCN(CCNc3nc(-c4ccccn4)cs3)CCNc3nc(-c4ccccn4)cs3)n2)nc1", "note": "[[L2Zn3]6+]", "values": [
      {"measurement": "% Inhibition, Mean", "setting": "[1]", "result": 16, "unit": "%"},
      {"measurement": "mean % activity", "setting": "[1]", "result": 84, "unit": "%"},
      {"measurement": "% activity", "setting": "[1]; duplicate runs", "result": "72% and 95%"},
      {"measurement": "% Inhibition, Mean", "setting": "[2]", "result": 96, "unit": "%"},
      {"measurement": "% Inhibition, Run 1 / Run 2", "setting": "[2]", "result": "94% and 98%"},
      {"measurement": "mean % activity", "setting": "[2]", "result": 3.6, "unit": "%"},
      {"measurement": "% Activity inhibition Mean", "setting": "[2]; 10 µM", "result": 96.0, "unit": "%"},
      {"measurement": "% Activity inhibition Run 1", "setting": "[2]; 10 µM", "result": 94, "unit": "%"},
      {"measurement": "% Activity inhibition Run 2", "setting": "[2]; 10 µM", "result": 98, "unit": "%"},
      {"measurement": "% Activity remaining Run 1", "setting": "[2]; 10 µM", "result": 6, "unit": "%"},
      {"measurement": "% Activity remaining Run 2", "setting": "[2]; 10 µM", "result": 2, "unit": "%"},
      {"measurement": "% activity", "setting": "[2]; duplicate runs", "result": "5.6% and 1.6%"},
      {"measurement": "% Inhibition, Mean", "setting": "[3]", "result": 5.35, "unit": "%"},
      {"measurement": "% Inhibition, Run 1 / Run 2", "setting": "[3]", "result": "5% and 6%"},
      {"measurement": "mean % activity", "setting": "[3]", "result": 95, "unit": "%"},
      {"measurement": "% activity", "setting": "[3]; duplicate runs", "result": "95% and 94%"},
      {"measurement": "% Inhibition, Mean", "setting": "[4]", "result": 31, "unit": "%"},
      {"measurement": "% Inhibition, Run 1 / Run 2", "setting": "[4]", "result": "33% and 28%"},
      {"measurement": "mean % activity", "setting": "[4]", "result": 70, "unit": "%"},
      {"measurement": "% activity", "setting": "[4]; duplicate runs", "result": "67% and 72%"},
      {"measurement": "% Activation, Mean value", "setting": "[5]", "result": 5, "unit": "%"},
      {"measurement": "% Inhibition, Mean", "setting": "[5]", "result": -5, "unit": "%"},
      {"measurement": "mean % activity", "setting": "[5]", "result": 105, "unit": "%"},
      {"measurement": "% activity", "setting": "[5]; duplicate runs", "result": "115% and 95%"},
      {"measurement": "% Activation, Mean value", "setting": "[6]", "result": 0.5, "unit": "%"},
      {"measurement": "% Inhibition, Mean", "setting": "[6]", "result": -0.5, "unit": "%"},
      {"measurement": "mean % activity", "setting": "[6]", "result": 101, "unit": "%"},
      {"measurement": "% activity", "setting": "[6]; duplicate runs", "result": "91% and 110%"},
      {"measurement": "% Activation, Mean value", "setting": "[7]", "result": 5, "unit": "%"},
      {"measurement": "% Inhibition, Mean", "setting": "[7]", "result": -5, "unit": "%"},
      {"measurement": "% Inhibition, Run 1 / Run 2", "setting": "[7]", "result": "-3.4% and -6.5%"},
      {"measurement": "mean % activity", "setting": "[7]", "result": 105, "unit": "%"},
      {"measurement": "% activity", "setting": "[7]; duplicate runs", "result": "103% and 107%"},
      {"measurement": "% Activation, Mean value", "setting": "[8]", "result": 6, "unit": "%"},
      {"measurement": "% Inhibition, Mean", "setting": "[8]", "result": -6, "unit": "%"},
      {"measurement": "mean % activity", "setting": "[8]", "result": 106, "unit": "%"},
      {"measurement": "% activity", "setting": "[8]; duplicate runs", "result": "96% and 117%"},
      {"measurement": "% Inhibition, Mean", "setting": "[9]", "result": 34, "unit": "%"},
      {"measurement": "% Inhibition, Run 1 / Run 2", "setting": "[9]", "result": "45% and 24%"},
      {"measurement": "mean % activity", "setting": "[9]", "result": 66, "unit": "%"},
      {"measurement": "% activity", "setting": "[9]; duplicate runs", "result": "56% and 76%"},
      {"measurement": "% Activation, Mean value", "setting": "[10]", "result": 19, "unit": "%"},
      {"measurement": "% Inhibition, Mean", "setting": "[10]", "result": -19, "unit": "%"},
      {"measurement": "mean % activity", "setting": "[10]", "result": 119, "unit": "%"},
      {"measurement": "% Activity Run 1", "setting": "[10]; 10 µM", "result": 131.0, "unit": "%"},
      {"measurement": "% Activity Run 2", "setting": "[10]; 10 µM", "result": 107.0, "unit": "%"},
      {"measurement": "% activity", "setting": "[10]; duplicate runs", "result": "131% and 107%"},
      {"measurement": "% Inhibition, Mean", "setting": "[11]", "result": 23, "unit": "%"},
      {"measurement": "% Inhibition, Run 1 / Run 2", "setting": "[11]", "result": "26% and 19%"},
      {"measurement": "mean % activity", "setting": "[11]", "result": 77, "unit": "%"},
      {"measurement": "% activity", "setting": "[11]; duplicate runs", "result": "74% and 81%"},
      {"measurement": "% Inhibition, Mean", "setting": "[12]", "result": 11, "unit": "%"},
      {"measurement": "mean % activity", "setting": "[12]", "result": 89, "unit": "%"},
      {"measurement": "% activity", "setting": "[12]; duplicate runs", "result": "97% and 81%"}
    ]}
  ]
}
